Measured values as given in patent US5601821A, “Immunoactive peptides and antibodies and their use in anti-allergy treatment” (National Research Development Corporation, priority 1989, dated 1997).
Where no end group is shown, it is not given here.

Legend:
[1] = system: rats experimentally sensitised to ovalbumin; assay: Serum histamine after systemic allergen (ovalbumin) challenge of sensitised, peptide-immunised rats; type: in vivo, rat
Method: Groups of rats (male, Wistar) were hypersensitized by subcutaneous injection of a mixture (0.5 ml) of 0.5 ml chicken egg white (200 mg protein) and 2.5 ml Bordetella pertussis (40×10^10 organisms/ml)by a well-established experimental procedure (Jasani, B. and Stanworth, D. R., Journal of Immunologlcal Methods, 30, pp. 55-68 (1979)).
Repeat subcutaneous injections of the peptide-carrier protein conjugate mixed with incomplete Freund's adjuvant (IFA) were administered at days 14 and 21.
The effect of pre- or post-sensitisation immunisation with peptide (as described in section (b) above) on the state of hypersensitivity of rats which had been experimentally sensitised to ovalbumin (according to Example 5(a) above) was determined by the following procedure; similar investigations were carried out on non-immunised groups of rats as a control.
Animals from both the immunized and control groups were bled (from the tail vein) prior to systemic allergen challenge by intrapenal injection of ovalbumin (5 mg). The animals were sacrificed 10 min. later, whereupon a further sample of blood was obtained from their hearts. The histamine levels in serum from both pre-and post-allergen challenge blood samples were determined by a standard automated spectrofluorimetric procedure; the antibody profiles of the sera being determined by ELISA (according to Example 5(c) above).

[2] = system: rat peritoneal mast cells; design: dose or concentration left out as unconfirmed; conditions: concentration range; cited from earlier work
[3] = A: immunised with peptide (PPD conjugate) before experimental sensitisation
[4] = B: immunised with peptide (PPD conjugate) after experimental sensitisation

Substance | Histamine release (mean allergen-induced serum histamine level) [1, 3] [ng/mL] | Histamine release (mean allergen-induced serum histamine level) [1, 4] [ng/mL] | effect on allergen-induced histamine release ([1]; pre- or post-immunisation of experimentally sensitised rats) | non-cytolytic histamine release from rat peritoneal mast cells [2]
F57: non-histamine releasing analogue of F49 in which the N-terminal lysine residue is replaced by glycine (GYNGSNQRFFIF-NH2) | 606 | 1159 | no significant effect | –
KTKGSGFF [octapeptide (sequence 497-504), human IgE Cε4 residues 497-504] | – | – | – | dose-dependent histamine release
KTKGSGFFVF [decapeptide (sequence 497-506), human IgE Cε4 residues 497-506] | – | – | – | dose-dependent histamine release
Lys-Tyr-Asn-Gly-Ser-Asn-Gln-Arg-Phe-Phe-Ile-Phe-NH2 (KYNGSNQRFFIF-NH2) [F49, histamine releasing rat ε-chain dodecapeptide] | 0 | 50 | – | –
RKTKGSGFF [nonapeptide (sequence 496-504), human IgE Cε4 residues 496-504] | – | – | – | dose-dependent histamine release
